The values below come from publication PMC6964270, “Co-Prodrugs of 7-Ethyl-10-hydroxycamptothecin and Vorinostat with in Vitro Hydrolysis and Anticancer Effects” (ACS Omega, 2019).

By IC50 is commonly meant the concentration needed to halve the response being measured.

One data set relates to HCT116 cell line. The data set is described as follows: In vitro cytotoxicity, SRB assay, HCT116. It is filed as cell-based. The conditions noted are these: Homo sapiens, HCT-116, 72 h, three independent determinations, read-out: IC50 (mean ± SD) HCT-116. (In general: The SRB assay estimates cell density from bound dye.)
A further data set concerns A549 cell line. The data set can be described thus: In vitro cytotoxicity, SRB assay, A549. The format is cell-based. Conditions: Homo sapiens, 72 h, three independent determinations, read-out: IC50 (mean ± SD) A549.
A short description of data set [1]: In vitro degradation and release of co-prodrugs in PBS pH 7.4 (HPLC). The format is physicochemical. Conditions: pH 7.4 PBS, 37 °C; for formation percentage of SN38: 24 h later. Here is the method: (§1) Chromatographic detection was carried out by using Agilent 1200 high-performance liquid chromatography (HPLC, Agilent, Palo Alto, CA) with a Diamonsil C18 (250 mm × 4.6 mm) column. The detection was conducted at 254 nm (UV detector) with the column temperature at room temperature. The sample volume for each injection was 50 μL. The gradient elution was applied with a mobile phase of acetonitrile (ACN) containing 0.1% formic acid and water containing 0.1% formic acid with a constant flow rate of 1 mL/min: 0–15 min (5% ACN to 95% ACN), 15–25 min (95% ACN). The external standard method was established by HPLC in order to determine the content of each compound.
SN38-SAHA co-prodrug solutions with a concentration of 100 μM/L were diluted to 0.05 μM/L with 10 mM PBS buffer (pH 7.4/6.0). After incubation at 37 °C for 0.5, 1, 2, 3, 4, 6, 12, 24, and 48 h, the areas of SN38-SAHA co-prodrugs and other species were detected by HPLC as well. Then each compound was calculated by the concentration–area standard curve, which was obtained by the external standard method.

Data set [2] in a line: In vitro degradation and release of co-prodrugs in human plasma (HPLC). It is filed as in vitro ADME. Conditions: male, 37 °C, read-out: t1/2 of co-prodrug in plasma (converted).
Source text: SAHA was synthesized before. SN-38 was purchased from Shanghai Puyi Chemical Co., Ltd. Di-tert-butyl dicarbonate ((Boc)2O), 4-dimethylaminopyridine (DMAP), 1,1′-carbonyl-diimidazole (CDI), and N,N′-diisopropylcarbodiimide (DIC) were all purchased from Energy Chemical Reagent Co. ( Shanghai, China). The different amino acids were purchased from Meryer Chemical Reagent Co. (Shanghai, China). CH2Cl2 was dried and redistilled before use. All chemical reagents used were of analytical-grade quality. Mouse plasma was taken from KM mouse (male, 6 weeks old). Human plasma was donated by an adult.
as §1
SN38-SAHA co-prodrug solutions with a concentration of 100 μM/L were diluted to 0.1 μM/L by plasma (human/mouse). After incubation at 37 °C for 0.5, 1, 2, 3, 4, and 6 h, 50 μL of reaction mixture was quenched with 50 μL of cold ACN and centrifuged at 30000 rpm × 5 min. The supernatant (50 μL) was detected by HPLC. Then each compound was calculated by the concentration–area standard curve, which was obtained by the external standard method.

On to `CCc1c2c(nc3ccc(O)cc13)-c1cc3c(c(=O)n1C2)COC(=O)[C@@]3(CC)OC(=O)CCCNC(=O)ONC(=O)CCCCCCC(=O)Nc1ccccc1` [3c], for which the IC50 in the data set with HCT116 cell line turned out to be 760 ± 30.9 nM; in the data set on A549 cell line it was 663 ± 24.3 nM. The “formation percentage of SN38” value in data set [1] is listed as “almost have no SN38 generated”. In data set [2], the half-life at 0.1 μM/L is 5 h.
For `CCc1c2c(nc3ccc(O)cc13)-c1cc3c(c(=O)n1C2)COC(=O)[C@@]3(CC)OC(=O)CCNC(=O)ONC(=O)CCCCCCC(=O)Nc1ccccc1` [3b], in that order: 428 ± 20.5 nM, 322 ± 32.5 nM, 3.4% and 3 h.
As for `CCc1c2c(nc3ccc(O)cc13)-c1cc3c(c(=O)n1C2)COC(=O)[C@]3(O)CC` [SN38, 7-Ethyl-10-hydroxycamptothecin], the figures for the IC50 in the data set on HCT116 cell line and in the data set on A549 cell line were 55.1 ± 10 nM and 45.4 ± 4.7 nM, respectively.
Take `CCc1c2c(nc3ccc(O)cc13)-c1cc3c(c(=O)n1C2)COC(=O)[C@@]3(CC)OC(=O)CCCCCNC(=O)ONC(=O)CCCCCCC(=O)Nc1ccccc1` [3d]: the IC50 with HCT116 cell line is 3010 ± 251 nM; with A549 cell line it was 3100 ± 116 nM. Besides, the “formation percentage of SN38” value in data set [1] is listed as “almost have no SN38 generated”. The half-life at 0.1 μM/L in data set [2] was 5 h.
For the compound `CCc1c2c(nc3ccc(O)cc13)-c1cc3c(c(=O)n1C2)COC(=O)[C@@]3(CC)OC(=O)CNC(=O)ONC(=O)CCCCCCC(=O)Nc1ccccc1` [3a], the IC50 in the data set on HCT116 cell line came to 113 ± 10.8 nM; with A549 cell line, 87.3 ± 7.9 nM. Moreover, the half-life at 0.05 μM/L in data set [1] (PBS buffer, read-out: half-life (t1/2) of co-prodrug in PBS (converted)) was 2 h. Further, the “formation percentage of SN38” value in data set [1] amounted to 26.3%. In addition, the half-life at 0.1 μM/L in data set [2] was 1 h.
